Laboratory results reported in the NIST ThermoML archive (doi:10.1021/je800895q).

CCCCCCCC[n+]1ccn(C)c1.F[P-](F)(F)(F)(F)F [1-octyl-3-methylimidazolium hexafluorophosphate]
Settings | surface tension liquid-gas [mN/m]
283.91 K | 34.75
283.92 K | 34.62
287.88 K | 34.48
293.41 K | 34.14
293.42 K | 34.36
298.13 K | 33.95
302.95 K | 33.56
303 K | 33.48
308.1 K | 33.27
308.14 K | 33.32
313.47 K | 32.98
313.51 K | 33.16
318.02 K | 32.9
318.04 K | 32.8
322.73 K | 32.52
322.79 K | 32.46
327.97 K | 32.12
327.98 K | 32.25
332.98 K | 32.02
333.05 K | 31.93
337.93 K | 31.81
337.95 K | 31.68
342.84 K | 31.46
343 K | 31.53
348.12 K | 31.26
348.18 K | 31.15
353.56 K | 30.94
353.62 K | 30.83

CCCCn1cc[n+](C)c1.F[P-](F)(F)(F)(F)F [1-butyl-3-methylimidazolium hexafluorophosphate]
Settings | surface tension liquid-gas [mN/m]
287.6 K | 44.41
288.14 K | 44.47
292.88 K | 44.11
292.99 K | 44.28
297.86 K | 44.03
298.34 K | 43.82
303.33 K | 43.64
303.37 K | 43.51
307.96 K | 43.24
308.21 K | 43.46
312.44 K | 43.13
312.88 K | 42.9
317.86 K | 42.58
318.23 K | 42.75
322.81 K | 42.21
322.98 K | 42.45
327.89 K | 42.14
327.91 K | 41.94
332.84 K | 41.86
333.31 K | 41.63
337.59 K | 41.57
337.97 K | 41.37
342.86 K | 41.05
343.06 K | 41.34
348.16 K | 40.95
348.34 K | 40.8
352.78 K | 40.47
352.99 K | 40.75

CCCCCCn1cc[n+](C)c1.F[P-](F)(F)(F)(F)F [1-hexyl-3-methylimidazolium hexafluorophosphate]
Settings | surface tension liquid-gas [mN/m]
284.3 K | 39.12
284.36 K | 39.1
288.16 K | 38.86
288.25 K | 38.81
293.48 K | 38.6
293.56 K | 38.7
298.97 K | 38.25
299.02 K | 38.21
303.58 K | 37.99
303.67 K | 37.89
308.56 K | 37.61
308.58 K | 37.78
313.45 K | 37.26
313.53 K | 37.3
318.45 K | 36.88
318.5 K | 36.94
323.12 K | 36.67
323.16 K | 36.78
327.89 K | 36.28
327.92 K | 36.29
333.78 K | 36.05
333.82 K | 35.99
337.92 K | 35.68
337.94 K | 35.74
343.05 K | 35.48
343.09 K | 35.29
347.67 K | 35.21
347.75 K | 35.09
353.68 K | 34.7
353.76 K | 34.87

CCCn1cc[n+](C)c1.F[P-](F)(F)(F)(F)F [1-methyl-3-propylimidazolium hexafluorophosphate]
Settings | surface tension liquid-gas [mN/m]
318.33 K | 46.41
318.39 K | 46.75
323.12 K | 46.09
323.13 K | 46.33
328.13 K | 45.76
328.14 K | 45.93
332.59 K | 45.52
332.63 K | 45.2
333.28 K | 45.82
338.14 K | 45.65
338.21 K | 45.14
343.25 K | 44.83
343.26 K | 44.86
348.02 K | 44.66
348.08 K | 44.54
352 K | 44.38
352.08 K | 44.31
